Measurements: ChEMBL document CHEMBL3774308, “KATching-Up on Small Molecule Modulators of Lysine Acetyltransferases” (J Med Chem, 2016)
Blank lines part the entries; values can stand above or below the molecule they belong to.

Tests used:
[1] = target: T1, Histone acetyltransferase p300 (Homo sapiens, UniProt Q09472); assay: Inhibition of full length recombinant human His6-tagged p300 expressed in baculovirus infected Sf21 cells using N-terminal H3 peptide substrate after 10 mins by radiometric filter binding assay in presence of [3H]acetyl-CoA
[2] = target: T1, Histone acetyltransferase p300; assay: Inhibition of full length recombinant human FLAG-tagged p300 expressed in baculovirus expression system using histone substrate incubated for 10 mins by radiometric gel assay
[3] = target: T2, Histone acetyltransferase KAT2B (Homo sapiens, UniProt Q92831); assay: Inhibition of full length recombinant human FLAG-tagged PCAF expressed in baculovirus expression system using histone substrate incubated for 10 mins by radiometric gel assay
Target sequence in this assay (Q92831 whole entry, the tested form may be a part): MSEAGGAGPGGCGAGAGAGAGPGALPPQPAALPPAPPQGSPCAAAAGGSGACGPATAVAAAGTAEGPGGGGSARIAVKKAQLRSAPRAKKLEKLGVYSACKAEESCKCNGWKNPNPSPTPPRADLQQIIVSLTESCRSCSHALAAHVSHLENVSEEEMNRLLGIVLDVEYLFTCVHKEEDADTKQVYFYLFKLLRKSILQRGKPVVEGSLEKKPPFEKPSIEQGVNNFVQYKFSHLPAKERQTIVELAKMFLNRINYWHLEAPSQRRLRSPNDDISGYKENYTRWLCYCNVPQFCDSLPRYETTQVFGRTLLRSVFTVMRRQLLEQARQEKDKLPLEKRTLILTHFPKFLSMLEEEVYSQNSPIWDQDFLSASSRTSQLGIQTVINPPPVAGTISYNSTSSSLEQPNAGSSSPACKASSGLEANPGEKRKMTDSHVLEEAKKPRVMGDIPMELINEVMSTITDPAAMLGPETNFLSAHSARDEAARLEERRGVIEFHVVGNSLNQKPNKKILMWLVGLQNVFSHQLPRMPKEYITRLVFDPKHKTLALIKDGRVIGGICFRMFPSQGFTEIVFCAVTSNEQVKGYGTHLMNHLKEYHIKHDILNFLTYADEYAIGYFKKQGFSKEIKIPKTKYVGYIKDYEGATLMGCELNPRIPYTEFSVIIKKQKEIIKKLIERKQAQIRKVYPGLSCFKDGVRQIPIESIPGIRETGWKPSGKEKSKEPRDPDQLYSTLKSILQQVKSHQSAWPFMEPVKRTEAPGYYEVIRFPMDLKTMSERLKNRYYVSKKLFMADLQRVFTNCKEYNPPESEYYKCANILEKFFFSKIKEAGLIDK

[4] = target: T1, Histone acetyltransferase p300; assay: Inhibition of human recombinant C-terminal GST-tagged p300 (1195 to 1673 residues) expressed in competent Escherichia coli DH5alpha cells using histone substrate after 30 mins by scintillation counting method in presence of [3H]acetyl-CoA
[5] = target: T2, Histone acetyltransferase KAT2B; assay: Inhibition of full length recombinant FLAG-tagged PCAF (unknown origin) expressed in baculovirus expression system using histone substrate after 10 mins by liquid scintillation counting method in presence of [3H]acetyl-CoA
Target sequence in this assay (Q92831 whole entry, the tested form may be a part): as above

[6] = target: T1, Histone acetyltransferase p300; assay: Inhibition of full length recombinant His6-tagged p300 (unknown origin) expressed in baculovirus expression system using histone substrate at 25 uM after 10 mins by liquid scintillation counting method in presence of [3H]acetyl-CoA relative to control
[7] = target: T3, Histone acetyltransferase KAT5 (Homo sapiens, UniProt Q92993); assay: Inhibition of TIP60 (unknown origin) expressed in bacterial system using histone substrate at 25 uM after 10 mins by liquid scintillation counting method in presence of [3H]acetyl-CoA relative to control
Target sequence in this assay (Q92993 whole entry, looked up): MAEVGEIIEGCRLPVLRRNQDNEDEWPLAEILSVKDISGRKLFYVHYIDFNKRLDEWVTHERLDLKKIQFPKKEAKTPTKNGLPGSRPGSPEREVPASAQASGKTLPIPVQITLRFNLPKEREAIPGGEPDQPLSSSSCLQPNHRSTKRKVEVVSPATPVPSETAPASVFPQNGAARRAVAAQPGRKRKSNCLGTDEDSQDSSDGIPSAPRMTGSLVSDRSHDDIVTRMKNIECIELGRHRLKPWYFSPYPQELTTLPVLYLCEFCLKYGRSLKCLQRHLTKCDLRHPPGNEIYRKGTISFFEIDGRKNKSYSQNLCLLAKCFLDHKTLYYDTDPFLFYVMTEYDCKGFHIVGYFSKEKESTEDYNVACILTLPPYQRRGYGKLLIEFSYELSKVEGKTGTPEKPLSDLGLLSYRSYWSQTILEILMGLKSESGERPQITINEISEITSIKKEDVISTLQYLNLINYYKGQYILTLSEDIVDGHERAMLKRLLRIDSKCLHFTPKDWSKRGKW

[8] = target: T1, Histone acetyltransferase p300; assay: Inhibition of full length recombinant His6-tagged p300 (unknown origin) expressed in baculovirus infected sf21 cells using histone substrate after 10 mins by liquid scintillation counting method in presence of [3H]acetyl-CoA
[9] = target: CREB-binding protein (Homo sapiens, UniProt Q92793); assay: Inhibition of recombinant GST-tagged CBP (unknown origin) using histone H4 peptide substrate assessed as reduction in NADH formation by spectrophotometric analysis
[10] = target: T3, Histone acetyltransferase KAT5; assay: Inhibition of recombinant TIP60 (unknown origin) using histone H4 peptide substrate assessed as reduction in NADH formation by spectrophotometric analysis
Target sequence in this assay (Q92993 whole entry): as the sequence (Q92993 whole entry, looked up) above

[11] = target: T1, Histone acetyltransferase p300; assay: Inhibition of recombinant GST-tagged p300 (unknown origin) using histone H4 peptide substrate assessed as reduction in NADH formation by spectrophotometric analysis
[12] = target: T2, Histone acetyltransferase KAT2B; assay: Inhibition of recombinant PCAF (unknown origin) using histone H4 peptide substrate assessed as reduction in NADH formation by spectrophotometric analysis
Target sequence in this assay (Q92831 whole entry, the tested form may be a part): as the sequence (Q92831 whole entry, the tested form may be a part) above

[13] = target: T1, Histone acetyltransferase p300; assay: Inhibition of recombinant full length p300 (unknown origin) using N-terminal H4-20 peptide substrate incubated for 7 mins by radiometric gel assay in presence of [14C]acetyl-CoA
[14] = target: T1, Histone acetyltransferase p300; assay: Inhibition of recombinant human p300 catalytic domain (1284 to 1673 residues) using histone H3 peptide substrate at 100 uM after 1 hr by liquid scintillation counting method in presence of [3H]acetyl-CoA relative to control
[15] = target: T2, Histone acetyltransferase KAT2B; assay: Inhibition of recombinant human PCAF catalytic domain (492 to 658 residues) using histone H3 peptide substrate at 100 uM after 1 hr by liquid scintillation counting method in presence of [3H]acetyl-CoA relative to control
Target sequence in this assay (Q92831 whole entry, looked up, the tested form may be a part): as the sequence (Q92831 whole entry, the tested form may be a part) above

[16] = target: T3, Histone acetyltransferase KAT5; assay: Inhibition of recombinant human GFP-tagged TIP60 expressed in chicken embryo DT40 cells using histone substrate at 500 uM incubated for 1 hr followed by ionizing radiation treatment by immunosorbent gel assay relative to control; type: cell-based
Target sequence in this assay (Q92993 whole entry, looked up): as the sequence (Q92993 whole entry, looked up) above

T1 sequence (Q09472 whole entry): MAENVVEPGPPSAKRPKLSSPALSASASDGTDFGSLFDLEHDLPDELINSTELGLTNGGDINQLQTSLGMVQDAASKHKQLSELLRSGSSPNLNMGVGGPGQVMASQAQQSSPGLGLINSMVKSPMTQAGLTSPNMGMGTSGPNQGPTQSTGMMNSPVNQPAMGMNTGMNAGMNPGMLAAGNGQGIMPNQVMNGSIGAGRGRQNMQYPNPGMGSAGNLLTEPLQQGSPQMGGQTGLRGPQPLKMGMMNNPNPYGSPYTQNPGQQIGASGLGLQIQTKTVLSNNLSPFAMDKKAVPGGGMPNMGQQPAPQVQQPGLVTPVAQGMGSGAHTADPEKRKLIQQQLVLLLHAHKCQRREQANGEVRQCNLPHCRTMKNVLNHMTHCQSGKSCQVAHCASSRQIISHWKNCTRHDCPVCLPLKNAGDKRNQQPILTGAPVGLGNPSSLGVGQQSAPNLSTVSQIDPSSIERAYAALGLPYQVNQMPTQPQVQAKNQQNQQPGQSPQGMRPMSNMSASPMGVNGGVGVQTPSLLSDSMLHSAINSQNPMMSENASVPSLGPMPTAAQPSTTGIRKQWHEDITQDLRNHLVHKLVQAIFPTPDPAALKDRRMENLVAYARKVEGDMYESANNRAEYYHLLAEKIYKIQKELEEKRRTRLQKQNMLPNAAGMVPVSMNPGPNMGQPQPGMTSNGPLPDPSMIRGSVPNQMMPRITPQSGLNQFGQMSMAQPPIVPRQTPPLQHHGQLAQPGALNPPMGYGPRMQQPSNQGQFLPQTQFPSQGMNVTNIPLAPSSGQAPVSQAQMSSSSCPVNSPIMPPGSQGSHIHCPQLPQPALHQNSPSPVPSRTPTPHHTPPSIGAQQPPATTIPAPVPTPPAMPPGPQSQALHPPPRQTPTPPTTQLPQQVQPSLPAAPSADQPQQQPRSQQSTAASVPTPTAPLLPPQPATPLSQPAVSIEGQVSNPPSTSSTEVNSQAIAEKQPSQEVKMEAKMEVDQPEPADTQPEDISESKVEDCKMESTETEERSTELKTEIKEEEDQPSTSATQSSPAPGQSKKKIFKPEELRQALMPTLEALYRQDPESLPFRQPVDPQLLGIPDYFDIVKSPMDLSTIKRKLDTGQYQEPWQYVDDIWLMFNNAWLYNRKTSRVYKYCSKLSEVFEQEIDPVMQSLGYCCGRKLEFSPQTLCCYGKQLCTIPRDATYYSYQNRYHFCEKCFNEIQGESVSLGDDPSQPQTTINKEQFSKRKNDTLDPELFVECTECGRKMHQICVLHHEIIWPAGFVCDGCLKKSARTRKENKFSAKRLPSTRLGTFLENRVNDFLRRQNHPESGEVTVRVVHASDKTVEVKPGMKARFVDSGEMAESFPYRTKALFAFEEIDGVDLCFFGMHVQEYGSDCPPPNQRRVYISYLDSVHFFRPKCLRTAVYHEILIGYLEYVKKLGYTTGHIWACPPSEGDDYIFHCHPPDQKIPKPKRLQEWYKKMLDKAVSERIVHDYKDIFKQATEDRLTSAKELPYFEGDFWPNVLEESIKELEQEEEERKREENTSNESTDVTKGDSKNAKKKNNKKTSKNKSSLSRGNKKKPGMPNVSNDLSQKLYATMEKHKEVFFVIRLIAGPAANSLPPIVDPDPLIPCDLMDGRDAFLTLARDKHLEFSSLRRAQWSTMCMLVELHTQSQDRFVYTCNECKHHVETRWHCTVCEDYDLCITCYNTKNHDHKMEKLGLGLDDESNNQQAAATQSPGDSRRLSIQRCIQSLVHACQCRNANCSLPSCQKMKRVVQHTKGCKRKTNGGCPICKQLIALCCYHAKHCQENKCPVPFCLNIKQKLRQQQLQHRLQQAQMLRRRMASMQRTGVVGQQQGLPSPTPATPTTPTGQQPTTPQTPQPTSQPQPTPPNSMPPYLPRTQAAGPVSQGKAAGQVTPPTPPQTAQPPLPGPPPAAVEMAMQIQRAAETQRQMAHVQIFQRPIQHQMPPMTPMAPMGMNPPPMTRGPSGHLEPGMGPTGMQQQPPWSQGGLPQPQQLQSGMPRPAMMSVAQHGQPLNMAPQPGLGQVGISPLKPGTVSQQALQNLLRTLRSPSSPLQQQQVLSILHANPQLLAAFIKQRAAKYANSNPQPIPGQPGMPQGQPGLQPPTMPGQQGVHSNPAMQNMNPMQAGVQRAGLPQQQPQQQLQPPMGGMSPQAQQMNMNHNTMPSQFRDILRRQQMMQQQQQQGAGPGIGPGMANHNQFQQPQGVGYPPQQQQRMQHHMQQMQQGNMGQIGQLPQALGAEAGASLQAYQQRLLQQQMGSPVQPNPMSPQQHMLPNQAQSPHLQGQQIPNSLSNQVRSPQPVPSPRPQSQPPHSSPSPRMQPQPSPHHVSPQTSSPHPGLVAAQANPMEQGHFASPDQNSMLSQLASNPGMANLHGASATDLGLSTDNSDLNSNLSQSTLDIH

- IC50 [1]: 7 µM
Structure (SMILES): C=C(C)[C@@H](/C=C/C(C)C)C[C@@]12C[C@@H](/C=C\C(C)C)C(C)(C)[C@@](CC=C(C)C)(C(=O)C(C(=O)c3ccc(O)c(O)c3)=C1O)C2=O

- IC50 [2]: 200 µM
- IC50 [3]: 0.3 µM
Structure (SMILES): CNC(=O)[C@H](C)NC(=O)[C@H](CCCNC(=N)N)NC(=O)[C@@H](NC(=O)[C@H](CCCCN)NC(=O)[C@H](CCC(N)=O)NC(=O)[C@@H](NC(=O)[C@H](C)NC(=O)[C@H](CCCNC(=N)N)NC(=O)[C@H](CC(C)C)NC(=O)[C@H](CO)NC(=O)[C@@H](NC(=O)CNC(=O)CNC(=O)N[C@H](CCCCNC(=O)CSCCNC(=O)CCNC(=O)[C@@H](O)C(C)(C)COP(=O)(O)OP(=O)(O)OC[C@@H]1O[C@H](n2cnc3c(N)ncnc32)[C@@H](O)[C@H]1OP(=O)(O)O)C(=O)N[C@@H](C)C(=O)N1CCC[C@@H]1C(=O)N[C@H](CCCNC(=N)N)C(=O)N[C@H](CCCCN)C(=O)N[C@H](CCC(N)=O)C(=O)N[C@@H](CC(C)C)C(=O)O)[C@H](C)O)[C@H](C)O)[C@H](C)O

- IC50 [4]: 0.022 µM
Structure (SMILES): N=C(N)NCCC[C@@H]1NC(=O)/C(=C/c2ccc(O)c(OCC[C@H](NC(=O)C[C@](O)(CC(=O)O)C(=O)O)C(=O)O)c2)NC1=O

- IC50 [13]: 0.05 µM
- IC50 [4]: 0.0032 µM
- IC50 [2]: 0.5 µM
- IC50 [3]: 200 µM
Structure (SMILES): CC(=O)N[C@@H](CCCCNC(=O)CSCCNC(=O)CCNC(=O)[C@H](O)C(C)(C)COP(=O)(O)OP(=O)(O)OC[C@H]1O[C@@H](n2cnc3c(N)ncnc32)[C@H](O)[C@@H]1OP(=O)(O)O)C(N)=O

- inhibition [14]: 81.2%
- inhibition [15]: 37.5%
Structure (SMILES): CCCCCCCCCCCCCCC=C(C(=O)OCC)C(=O)OCC

- IC50 [4]: 0.011 µM
Structure (SMILES): N=C(N)NCCC[C@@H]1NC(=O)/C(=C/c2ccc(O)c(OCC[C@H](NC(=O)C[C@](O)(CC(=O)N[C@@H](CC(=O)O)C(=O)O)C(=O)O)C(=O)O)c2)NC1=O

Second part, the molecule before the results:

Structure (SMILES): CCCCCCCCCCCC1=C(O)C(=O)C=C(O)C1=O [EMBELIN]
- IC50 [5]: 7.2 µM
- inhibition [6]: 75%
- inhibition [7]: 75%

Structure (SMILES): COc1ccc(C(=O)C2=C3OC(C)(C)[C@@H](CC=C(C)C)C[C@@]34C[C@@H](/C=C\C(C)C)C(C)(C)[C@@](CC=C(C)C)(C2=O)C4=O)cc1O
- IC50 [8]: 5 µM

Structure (SMILES): O=C(O[C@@H]1Cc2c(O)cc(O)cc2O[C@@H]1c1cc(O)c(O)c(O)c1)c1cc(O)c(O)c(O)c1 [EPIGALOCATECHIN GALLATE]
- IC50 [9]: 50 µM
- IC50 [10]: 70 µM
- IC50 [11]: 30 µM
- IC50 [12]: 60 µM

Structure (SMILES): O=C(O)Cn1nnc(-c2ccc(CN(CCCCOc3ccc(CN4CCCC4)cc3)CCc3ccccc3)cc2)n1
- inhibition [16]: 60%
